Experiments:
Assay in all cases: Turf selectivity evaluation, visual phytotoxicity, glasshouse pots
Assay type in all cases: in vivo
Conditions in all cases: visual evaluation 7, 14, 21, 28 DAA
[1] = system: Festuca arundinacea (FESAR, Tall Fescue, Farandole)
Method: (§1) Turf selectivity evaluations were performed on the most important cool-season turf varieties, across 4 application rates with two replications contained within a factorial design. Sarmentine was applied at 0, 1500, 3000, and 6000 g ai ha^−1 on Sep. 11, 2010 using a spray volume of 800 L ha^−1 with 0.2% V/V x-77 adjuvant. The solution was delivered with LU 90-02S Lechler nozzles at 2.58 bars with an application speed of 0.96 km hr^−1.
(§2) Plants were grown in 9 cm diameter pots using Les Barges soil, previously characterized as containing 25.4% clay; 7.1% loam, 67.5% sand, 7% CaCO3, 2.4% organic matter, and pH 7.5. Pots were fertilized with Oscarna Rasaflor at 100 g m-2 at seeding. Plants were grown throughout the experiment with day/night temperatures of 23° C./15° C. with relative humidity of between 50-60%.
(§3) Turf species (Table 1) were visually evaluated for symptoms of phytotoxicity (%) using the untreated control as a bench-mark for comparison at 7, 14, 21, and 28 days after application (DAA). Turfgrass species were mown at 13 DAA.

[2] = system: Poa pratensis (POAPR, Kentucky Bluegrass, Midnight star)
Method: as §1, §2, §3

[3] = system: Lolium perenne (LOLPE, Perennial Ryegrass, Citation Fore)
Method: as §1, §2, §3

[4] = system: Poa annua var. Reptans (POAAN, Annual bluegrass, True Putt)
Method: as §1, §2, §3

[5] = system: Agrostis stolonifera (AGSST, Creeping Bentgrass, Pennlinks)
Method: as §1, §2, §3

[6] = rate 1500 g ai ha^-1, grass x rate estimate
[7] = rate 3000 g ai ha^-1, grass x rate estimate
[8] = rate 6000 g ai ha^-1, grass x rate estimate

CCCCC/C=C/C=C/C(=O)N1CCCC1 [sarmentine, N-(2E,4E-Decadienoyl)pyrrolidine]
Phyto-toxicity Estimate (% of Untreated) [1, 6]: 14.1 % of Untreated | Phyto-toxicity Estimate (% of Untreated) [1, 7]: 22.8 % of Untreated | Phyto-toxicity Estimate (% of Untreated) [1, 8]: 31.3 % of Untreated | Phyto-toxicity Estimate (% of Untreated) [2, 6]: 6.3 % of Untreated | Phyto-toxicity Estimate (% of Untreated) [2, 7]: 8.8 % of Untreated | Phyto-toxicity Estimate (% of Untreated) [2, 8]: 21.3 % of Untreated | Phyto-toxicity Estimate (% of Untreated) [3, 6]: 15.3 % of Untreated | Phyto-toxicity Estimate (% of Untreated) [3, 7]: 27.2 % of Untreated | Phyto-toxicity Estimate (% of Untreated) [3, 8]: 46.3 % of Untreated | Phyto-toxicity Estimate (% of Untreated) [4, 6]: 35.0 % of Untreated | Phyto-toxicity Estimate (% of Untreated) [4, 7]: 53.8 % of Untreated | Phyto-toxicity Estimate (% of Untreated) [4, 8]: 83.1 % of Untreated | Phyto-toxicity Estimate (% of Untreated) [5, 6]: 13.1 % of Untreated | Phyto-toxicity Estimate (% of Untreated) [5, 7]: 19.4 % of Untreated | Phyto-toxicity Estimate (% of Untreated) [5, 8]: 27.5 % of Untreated
